The NIST ThermoML archive (doi:10.1016/j.tca.2010.09.004)
± gives the expanded uncertainty stated by the source.

Assay: xn = mol fraction of the nth substance listed
Conditions: 101 kPa, Liquid; for speed of sound: Sing-around technique in a fixed-path interferometer; for mass density: Vibrating tube method

CCCCNCCCC [dibutylamine] + CCC(C)=O
Conditions | mass density [kg/m3] | speed of sound [m/s]
293.15 K, x2 = 0.0568 | 760.739 ± 0.2 | 1258.2 ± 1.1
293.15 K, x2 = 0.1152 | 762.014 ± 0.2 | 1255 ± 1.1
293.15 K, x2 = 0.1488 | 762.814 ± 0.2 | 1252.9 ± 1.1
293.15 K, x2 = 0.1968 | 764.024 ± 0.2 | 1250.3 ± 1
293.15 K, x2 = 0.2539 | 765.57 ± 0.2 | 1247.2 ± 1
293.15 K, x2 = 0.3056 | 767.093 ± 0.2 | 1244.4 ± 1
293.15 K, x2 = 0.3564 | 768.675 ± 0.2 | 1241.6 ± 1
293.15 K, x2 = 0.4105 | 770.501 ± 0.2 | 1238.7 ± 1
293.15 K, x2 = 0.4545 | 772.103 ± 0.2 | 1236.4 ± 1
293.15 K, x2 = 0.5005 | 773.872 ± 0.2 | 1234 ± 1
293.15 K, x2 = 0.5553 | 776.145 ± 0.2 | 1231.1 ± 1
293.15 K, x2 = 0.6022 | 778.277 ± 0.2 | 1228.9 ± 1
293.15 K, x2 = 0.6554 | 780.87 ± 0.2 | 1225.8 ± 1
293.15 K, x2 = 0.7036 | 783.444 ± 0.19 | 1223.3 ± 1
293.15 K, x2 = 0.7554 | 786.435 ± 0.19 | 1220.8 ± 1
293.15 K, x2 = 0.8022 | 789.404 ± 0.19 | 1218.7 ± 1
293.15 K, x2 = 0.8598 | 793.411 ± 0.19 | 1216.3 ± 1
293.15 K, x2 = 0.9001 | 796.544 ± 0.19 | 1215 ± 1
293.15 K, x2 = 0.9513 | 800.881 ± 0.19 | 1213.5 ± 1
298.15 K, x2 = 0.0681 | 756.775 ± 0.2 | 1237.3 ± 1
298.15 K, x2 = 0.1038 | 757.539 ± 0.2 | 1235.3 ± 1
298.15 K, x2 = 0.1625 | 758.95 ± 0.2 | 1232 ± 1
298.15 K, x2 = 0.2034 | 759.972 ± 0.2 | 1229.9 ± 1
298.15 K, x2 = 0.2603 | 761.475 ± 0.2 | 1226.7 ± 1
298.15 K, x2 = 0.3112 | 762.929 ± 0.2 | 1223.8 ± 1
298.15 K, x2 = 0.3523 | 764.175 ± 0.2 | 1221.6 ± 1
298.15 K, x2 = 0.3937 | 765.506 ± 0.2 | 1219.4 ± 1
298.15 K, x2 = 0.442 | 767.105 ± 0.2 | 1216.6 ± 1
298.15 K, x2 = 0.5018 | 769.396 ± 0.2 | 1213.3 ± 1
298.15 K, x2 = 0.5455 | 771.147 ± 0.2 | 1211 ± 1
298.15 K, x2 = 0.6036 | 773.698 ± 0.2 | 1207.7 ± 1
298.15 K, x2 = 0.6514 | 775.963 ± 0.2 | 1205.2 ± 1
298.15 K, x2 = 0.7003 | 778.472 ± 0.2 | 1202.7 ± 1
298.15 K, x2 = 0.7473 | 781.05 ± 0.2 | 1200.3 ± 1
298.15 K, x2 = 0.7978 | 784.142 ± 0.19 | 1197.9 ± 1
298.15 K, x2 = 0.8456 | 787.356 ± 0.19 | 1195.9 ± 1
298.15 K, x2 = 0.9022 | 791.581 ± 0.19 | 1193.7 ± 1
298.15 K, x2 = 0.9482 | 795.385 ± 0.19 | 1192.3 ± 1
303.15 K, x2 = 0.0621 | 752.548 ± 0.2 | 1218.9 ± 1
303.15 K, x2 = 0.1098 | 753.539 ± 0.2 | 1216.1 ± 1
303.15 K, x2 = 0.1666 | 754.759 ± 0.2 | 1212.6 ± 1
303.15 K, x2 = 0.2074 | 755.736 ± 0.2 | 1210.3 ± 1
303.15 K, x2 = 0.2593 | 757.08 ± 0.2 | 1207.2 ± 1
303.15 K, x2 = 0.309 | 758.454 ± 0.2 | 1204.7 ± 1
303.15 K, x2 = 0.3551 | 759.79 ± 0.2 | 1202 ± 1
303.15 K, x2 = 0.4045 | 761.368 ± 0.2 | 1199.3 ± 1
303.15 K, x2 = 0.4566 | 763.133 ± 0.2 | 1196.4 ± 1
303.15 K, x2 = 0.4957 | 764.551 ± 0.2 | 1194.1 ± 1
303.15 K, x2 = 0.5402 | 766.282 ± 0.2 | 1191.6 ± 1
303.15 K, x2 = 0.6005 | 768.842 ± 0.2 | 1188.2 ± 1
303.15 K, x2 = 0.6493 | 771.091 ± 0.2 | 1185.6 ± 1
303.15 K, x2 = 0.7004 | 773.646 ± 0.2 | 1182.9 ± 1
303.15 K, x2 = 0.7486 | 776.288 ± 0.2 | 1180.5 ± 1
303.15 K, x2 = 0.8005 | 779.398 ± 0.2 | 1177.9 ± 1
303.15 K, x2 = 0.8456 | 782.362 ± 0.19 | 1175.9 ± 1
303.15 K, x2 = 0.899 | 786.254 ± 0.19 | 1173.7 ± 1
303.15 K, x2 = 0.953 | 790.578 ± 0.19 | 1172 ± 1
